Assay results as given in US20210278408A1, “METHODS OF TREATMENT OF CANCER WITH SUBSTITUTED PYRROLE AND PYRAZOLE COMPOUNDS AND DIAGNOSIS OF CANCERS SUSCEPTIBLE TO TREATMENT WITH SUBSTITUTED PYRROLE AND PYRAZOLE COMPOUNDS” (Bantam Pharmaceutical, LLC, priority 2018, published 2021).
Entries after “also recorded” stand apart in the source; their conditions may differ.

Tests used:
[1] = system: BJAB (malignant human B-cell-line); assay: BJAB cell proliferation; assay type: cell-based; details: BJAB (malignant human B-cell-line) cell proliferation, EC50; read-out: BJAB
[2] = system: Cell cycle; assay: High content imaging screen: cell cycle; assay type: cell-based
Method: (§1) Mechanism of Action Screens A series of broad high content imaging, transcriptomic, metabolomic, and CRISPR KO screens were performed to link Compound A197 activity to a probable method of action. The outcome of these screens included two notable observations.

[3] = system: DNA Damage; assay: High content imaging screen: DNA damage (Histone H2A.x phosphorylation); assay type: cell-based; details: Histtone H2A.x phosphorylation as marker
Method: as §1

[4] = system: Autophagy; assay: High content imaging screen: autophagy (LC3 cleavage, autophagic granules); assay type: cell-based
Method: as §1

[5] = system: GPCR; assay: In vitro assays: GPCR; assay type: biochemical; details: 69 family members
[6] = system: Metabolites; assay: Metabolomic screen; assay type: cell-based; details: GSH, ATP/AMP ratio, isocitrate and aconitate
Method: as §1

[7] = system: eIF2α phosphorylation; assay: eIF2α phosphorylation in HCT-116 cells, Western blotting; assay type: cell-based, human; details: 5 μM, 30 minutes, 1, 2 or 4 hrs
Method: FIG. 12 is a set of graphs of Compound A197-induced phosphorylation of eIF2a. HCT-116 cells were treated with 5 μM Compound A197. eIF2α and p-eIF2α levels were determined by Western blotting. All data are mean±SD (n=3). *=p<0.05; #p<0.005.
The canonical pathway of ATF4 induction involves eIF2α phosphorylation. To determine the levels of levels of eIF2α and p-eIF2α were determined using Western blotting. HCT-116 cells (1.5×10^5 per well) were cultured in 12 well tissue culture plates and treated with 5 μM Compound A197 dissolved in McCoys complete medium with 10% FBS for 30 minutes, 1,2 or 4 hrs. Following treatment, media was removed, the cells were washed with PBS and then lysed following addition of RIPA lysis buffer. The cell lysate is then clarified by centrifugation at 14,000×g for 10 minutes. The clarified lysate protein levels are determined using BCA methodology. All lysates are diluted with RIPA buffer to give a final concentration of 200 μg/ml. As a control, HCT-116 cells were starved for essential amino acids (EAA), which increases eIF2α phosphorylation via EIF2AAK4 (GCN2). The HCT-116 cells were plated as above but the media was removed and replaced with Earls Balanced salt solution. All subsequent steps for lysate preparation were identical to those described above.

[8] = system: NHLF, BJAB, SU-DHL-2, and HCT-116 cells; assay: Total cellular GSH levels (GSH-Glo), all lines; assay type: cell-based, human; details: tumor lines HCT-116, BJAB
Method: Total cellular GSH levels are reduced in tumor lines treated with Compound A197 The therapeutic compounds will cause a dose dependent reduction in total cellular glutathione in HCT-116, BJAB, SU-DHL-2, but not in NHLF cells. The maximum reduction of cellular GSH is in the range of 43-69%. The reduction In GSH levels appears independent of apoptosis.
(§2) NHLF, BJAB, SU-DHL-2, and HCT-116 cells were treated with Compound A197 for 4 hours prior to lysate harvest. Total cellular glutathione (GSH) levels were determined using a luminescent endpoint (GSH-Glo, Promega). Cell proliferation was determined using Cell-Titre Glo following 72 hours of compound treatment. All data shown is mean±SD of three biological replicates.

[9] = system: NHLF; assay: Total cellular GSH levels (GSH-Glo): NHLF; assay type: cell-based, human; details: 4 hrs
Method: as §2

[10] = system: BJAB; assay: Total cellular GSH levels (GSH-Glo): BJAB; assay type: cell-based, human; details: 4 hrs, mean ± std. dev.
Method: as §2

[11] = system: SU-DHL-2; assay: Total cellular GSH levels (GSH-Glo): SU-DHL-2; assay type: cell-based, human; details: 4 hrs, mean ± std. dev.
Method: as §2

[12] = system: HCT-116; assay: Total cellular GSH levels (GSH-Glo): HCT-116; assay type: cell-based, human; details: 4 hrs, mean ± std. dev.
Method: as §2

[13] = system: NHLF; assay: Apoptosis, 72 hr: NHLF; assay type: cell-based, human
[14] = Homo sapiens, read-out: GSH IC50 (Abs)

SMILES	EC50 [1]	Outcome: Cell cycle [2]	Outcome: DNA Damage [3]	Outcome: Autophagy [4]	Outcome: GPCR [5]	Outcome: Metabolites [6]	eIF2α phosphorylation [7]	maximum reduction of cellular GSH [8]	GSH % Max reduction [9]	GSH % Max reduction [10]	IC50 [10, 14]	GSH % Max reduction [11]	IC50 [11, 14]	GSH % Max reduction [12]	IC50 [12, 14]	Apoptosis, 72 hr [13]
COC(=O)c1c(-c2cccc(F)c2)c(C)nn1-c1nc(C2=CCC(C(F)(F)F)CC2)c(SC(C)C)s1 (single isomer, unassigned) [Compound B19, methyl 4-(3-fluorophenyl)-1-(5-(isopropylthio)-4-(4-(trifluoromethyl)cyclohex-1-en-1-yl)thiazol-2-yl)-3-methyl-1H-pyrazole-5-carboxylate]	< 1000 nM	–	–	–	–	–	–	–	–	–	–	–	–	–	–	–
Cc1nn(-c2nc(-c3ccc(C(F)(F)F)cc3)c(SC(C)C)s2)c(C(=O)O)c1-c1cccc(F)c1 [Compound A197, 4-(3-fluorophenyl)-1-(5-(isopropylthio)-4-(4-(trifluoromethyl)phenyl)thiazol-2-yl)-3-methyl-1H-pyrazole-5-carboxylic acid]	–	G1 arrest associated with TP53 independent CDKN1A	No evidence of DNA damage using Histtone H2A.x	No detectable LC3 cleavage; no formation of	No activity on 69 family members	induced specific alterations in redox (decreased GSH), energy (decrease in ATP/AMP ratio), and TCA cycle intermediates (decreased isocitrate/aconitate) in tumor cells but not NHLF; also recorded: Decrease in total GSH levels; decrease in ATP/AMP	Increased eIF2α phosphorylation within 30 minutes	43-69%	0%	69 ± 11%	208 ± 80 nM	52 ± 4%	120 ± 50 nM	43 ± 9%	360 ± 720 nM	No
